Reference: patent publication US20240350463A1, “SMALL MOLECULE COMPOUNDS” (APERTOR PHARMACEUTICALS, INC., priority 2021, published 2024)

Legend:
[1] = test system: CD8 cells isolated from p14 transgenic mice; assay: CD8 CTV-labelled proliferation assay; format: cell-based, mouse; conditions: activated for 72 hours; 10 nM, 100 nM, and 100 μM
Protocol: The five analogs and rapamycin were assayed for their effect on proliferation and correlation to p70S6K inhibitory activity. […] The proliferation was measured by FACS. The five analogs were tested at varying concentrations (10 nM, 100 nM, and 100 μM), activated for 72 hours with rapamycin and DMSO treated controls.
CD8 cells were isolated from p14 transgenic mice, then labelled with CTV. The labelled cells then were activated with plate-bound anti-CD3 (5 μg/mL) and soluble anti-CD28 (2 μg/mL), along with rapamycin, rapamycin analog, or DMSO. After activation of 48 hours and 72 hours, the cells were collected to assay the CVT labelling signal using flow cytometry. All rapamycin analogs decrease proliferation in CD8 cells, with varying potency (FIG. 12).

naïve CD4+ mouse T-cells = assay: expansion of CD62L+ memory T-cells (FACS); format: cell-based
Protocol: RAP23 was further evaluated by treating naïve CD4+ T-cells at multiple concentrations (1 nM to 1 uM) for expansion of CD62L+ memory T-cells. […] These 5 compounds were identified to have reduced immunosuppression (with improved safety) with maximum and durable expansion of memory T-cells.

[2] = test system: mTOR activity (phospho-p70S6K); assay: phospho-p70S6K FACS in activated mouse T-cells; format: cell-based
naïve CD4+ mouse T cells = assay: FACS of naïve CD4+ T cells for CD4+CD25+FOXP3+; conditions: 1 uM
Treg cells = assay: treatment of Treg cells with expander beads; format: cell-based; conditions: 100 nM
conventional T cells = assay: culture of conventional T cells with RAP35; format: cell-based
[3] = stability during semi-preparative HPLC; format: physicochemical; conditions: approximately one fifth transformed spontaneously to a more nonpolar compound
Protocol: To accumulate 35-desmethylrapamycin (RAP35) and 35-desmethyl-27-demethoxyrapamycin (RAP35/27) for characterization and bioactivity assays, a 7.2-L scale of fermentation was conducted. 7.2 L fermentation medium was prepared and aliquoted into eighteen 2 L Erlenmeyer flasks 20 mL of the seed culture was inoculated into each 2 L Erlenmeyer flask, which was then capped with 8-layer gauze. The fermentation was conducted at 28° C., 220 rpm for 4 days. To process the culture, the fermentation broth was centrifuged at 9,000 g for 10 min at room temperature, and the cell pellet was collected and combined. After transferring the cells into a 5 L glass beaker, 2 volumes of acetonitrile were added into 1 volume of the cells. The mixture was stirred vigorously using a magnetic stirrer at room temperature for 1 h. The mixing was halted, and the mixture was allowed to settle under gravity for 30 min. The solvent layer was poured into a 5 L Erlenmeyer flask, and another 2 volumes of acetonitrile was added into the cells for extraction. After three times of extraction in total, the solvent layers were combined and concentrated under reduced pressure. […] The absorbance at 278 nm wavelength was monitored. […]

With `CO[C@H]1C[C@@H]2CC[C@@H](C)[C@@](O)(O2)C(=O)C(=O)N2CCCC[C@H]2C(=O)O[C@H]([C@H](C)C[C@@H]2CC[C@@H](O)[C@H](OC)C2)CC(=O)[C@H](C)/C=C(\C)[C@@H](O)[C@@H](OC)C(=O)[C@H](C)CC/C=C/C=C/C=C/1C` [RAP23, (3S,6R,7E,9R,10R,12R,15E,17E,19E,21 S,23S,26R,27R,34aS)-9,27-dihydroxy-3-((R)-1-((1S,3R,4R)-4-hydroxy-3-methoxycyclohexyl)propan-2-yl)-10,21-dimethoxy-6,8,12,20,26-pentamethyl-9,10,12,13,14,21,22,23,24,25,26,27,32,33,34,34a-hexadecahydro-3H-23,27-epoxypyrido[2,1-c][1]oxa[4]azacyclohentriacontine-1,5,11,28,29(41H,6H,31H)-pentaone] the “proliferation relative to RAP35 and rapamycin” value [1] was “increased proliferation”, the “generation of memory versus inhibition of proliferation” value (naïve CD4+ mouse T-cells) was “promote potent generation of memory without potently inhibiting proliferation” and the “phospho-p70S6K low/CD62L+ high phenotype relative to all doses of rapamycin” value (naïve CD4+ mouse T-cells; 1 nM to 1 uM) was “reduced”. For the same compound, the “portion of cells with phospho-p70S6K high/CD62L+ high phenotype” value (naïve CD4+ mouse T-cells; 1 nM to 1 uM) was 7-10% and the “inhibition of p70S6 high signal” value ([2]; even at 1 uM) was “never fully inhibited”.
For `CO[C@H]1C[C@@H]2CC[C@@H](C)[C@@](O)(O2)C(=O)C(=O)N2CCCC[C@H]2C(=O)O[C@H](CC[C@@H]2CC[C@@H](O)[C@H](OC)C2)CC(=O)[C@H](C)/C=C(\C)[C@@H](O)[C@@H](OC)C(=O)[C@H](C)C[C@H](C)/C=C/C=C/C=C/1C` [RAP35, (3R,6R,7E,9R,10R,2R,14S,15E,17E,19E,21S,23S,26R,27R,34aS)-9,27-dihydroxy-3-(2-((1S,3R,4R)-4-hydroxy-3-methoxycyclohexyl)ethyl)-10,21-dimethoxy-6,8,12,14,20,26-hexamethyl-9,10,12,13,14,21,22,23,24,25,26,27,32,33,34,34a-hexadecahydro-3H-23,27-epoxypyrido[2,1-c][1]oxa[4]azacyclohentriacontine-1,5,11,28,29(4H,6H,31H)-pentaone], the effect on differentiation (naïve CD4+ mouse T cells) was “strong effect”, the “expression of CCR7” value (Treg cells) was “reduce” and the “expression of CD45RO” value (Treg cells) was “reduce”. The “expression of CXCR3” value (Treg cells) was “reduce”, the “phosphorylation of 4EBP1” value (Treg cells) was “reduce” and the “phosphorylation of S6” value (Treg cells) was “reduce”. The CCR7 expression (conventional T cells) was “increased”, the CD45RO expression (conventional T cells) was “decreased” and the “level of phosphorylation of 4EBP1 and S6” value (conventional T cells; 100 nM) was “mTOR pathway was being targeted”. The anti-inflammatory effects (conventional T cells; Cell Proliferation Dye and phenotypic markers) was “promising anti-inflammatory effects” and the p70S6 high cells ([2]; overnight stimulation, therapeutic concentrations (1-200 nM)) was “significantly reduced”.
For `CO[C@H]1C[C@@H]2CC[C@@H](C)[C@@](O)(O2)C(=O)C(=O)N2CCCC[C@H]2C(=O)O[C@H](CC[C@@H]2CC[C@@H](O)[C@H](OC)C2)CC(=O)[C@H](C)/C=C(\C)[C@@H](O)CC(=O)[C@H](C)C[C@H](C)/C=C/C=C/C=C/1C` [RAP35/27A, (3R,6R,7E,9S,12R,14S,5E,17E,19E,21S,23S,26R,27R,34aS)-9,27-dihydroxy-3-(2-((1S,3R,4R)-4-hydroxy-3-methoxycyclohexyl)ethyl)-21-methoxy-6,8,12,14,20,26-hexamethyl-9,10,12,13,14,21,22,23,24,25,26,27,32,33,34,34a-hexadecahydro-3H-23,27-epoxypyrido[2,1-c][1]oxa[4]azacyclohentriacontine-1,5,11,28,29(4H,6H,31H)-pentaone], the “stability in the process of semi-preparation” value [3] was “tended to be unstable”.
